Some test systems named below: U251 CNS; HCC-2998 colon; KM12 colon; HS 578T breast; M14 melanoma; NCI/ADR-RES ovarian; HCT-15 colon; NCI-H522 lung; K-562 leukemia; SR leukemia.
Experiment in all cases: inhibition of tumour cell growth, NCI panel, 48 h

Several values for one entry are separate records, joined by “and”; a condition that tells them apart may be missing. Equal values may be shown once.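 Where inhibition never reached the appropriate level, the endpoint shown equals the highest concentration tested. Otherwise, values were interpolated linearly from a five-concentration, 48-hour dose response in 96-well plates. At the GI50, growth is halved. At the TGI there is no net growth.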

`Oc1[nH]c2ccccc2c1N=NC(=S)NCc1ccccn1`: the TGI in the experiment with U251 CNS is 6.22 µM; with HCC-2998 colon, 16.5 µM; with KM12 colon, 19.6 µM; in the experiment on HS 578T breast, 47.7 µM; with M14 melanoma it was 4.89 µM; in the experiment on NCI/ADR-RES ovarian, over 23.3 µM. For the same compound, the values for the TGI in the experiment on HCT-15 colon and with NCI-H522 lung were 33.2 µM and 14.7 µM, respectively.
In the case of `CN(C)CC(C)(C)C(=O)/C=C/c1ccccc1`, the TGI came to 30.5 µM in the experiment on U251 CNS; 33.7 µM in the experiment with K-562 leukemia; 28.5 µM in the experiment with KM12 colon; 26.7 µM with M14 melanoma; 26.9 µM in the experiment on HCT-15 colon; 23 µM in the experiment on NCI-H522 lung.
For `C/C(=N/NC(=O)c1ccccc1Nc1ccccc1C(=O)N/N=C(\C)c1ccc(C)cc1)c1ccc(C)cc1`, the TGI in the experiment with SR leukemia, in the experiment on U251 CNS, in the experiment on K-562 leukemia, in the experiment on HCC-2998 colon, in the experiment on KM12 colon and in the experiment on HS 578T breast was over 100 µM throughout. For the same compound, the TGI in the experiment on M14 melanoma, in the experiment on NCI/ADR-RES ovarian and in the experiment with HCT-15 colon was over 100 µM in each case.
For the compound `N#CC(NNC(=O)c1c(Cl)c(Cl)c(Cl)c(Cl)c1-c1nc2ccc(C(=O)c3ccccc3)cc2[nH]1)c1cccc(Oc2ccccc2)c1` (centres undefined), the TGI is 54.4 µM in the experiment with SR leukemia; over 100 µM in the experiment on U251 CNS; over 100 µM with K-562 leukemia; over 100 µM in the experiment on KM12 colon; 83.9 µM in the experiment on M14 melanoma; 57.1 µM in the experiment on NCI/ADR-RES ovarian. This compound also gave a TGI in the experiment with HCT-15 colon of 53.3 µM.
Take `Nc1nc(Cl)cc(NCC2CC(O)(CO)C2)n1` (centres undefined): the TGI in the experiment with U251 CNS, in the experiment on K-562 leukemia, in the experiment on HCC-2998 colon, with KM12 colon, in the experiment on HS 578T breast and in the experiment on NCI/ADR-RES ovarian was over 100 µM each time. Besides, the TGI in the experiment with HCT-15 colon and in the experiment with NCI-H522 lung was over 100 µM in each case.
As to `Cc1cc(N)c2cc(NC(=O)CCCCCCCCC(=O)Nc3ccc4nc(C)cc(N)c4c3)ccc2n1`, the TGI in the experiment on SR leukemia is over 100 µM; in the experiment on U251 CNS it was 49.3 µM; in the experiment with K-562 leukemia, over 100 µM; in the experiment with HCC-2998 colon it was over 82.9 µM; in the experiment on KM12 colon it was over 68.4 µM; in the experiment with M14 melanoma, over 100 µM. Also, the TGI with HCT-15 colon was over 100 µM; in the experiment on NCI-H522 lung it was 5.36 µM.
Regarding `CC1CC/C(=C\c2ccc(F)cc2)C2=C1C(c1ccc(F)cc1)NC(=S)N2` (centres undefined), the TGI with U251 CNS, with K-562 leukemia, in the experiment with KM12 colon, in the experiment with HS 578T breast, in the experiment with M14 melanoma and in the experiment with NCI/ADR-RES ovarian was over 100 µM each time. In the experiment with HCT-15 colon, this compound gave a TGI of over 100 µM.
In the case of `O=C(O)CCC(NC(=O)/C(=C/c1ccccc1)NC(=O)c1ccccc1)C(=O)O` (centres undefined), the TGI with K-562 leukemia, with HCC-2998 colon, with KM12 colon, in the experiment on HS 578T breast, in the experiment on M14 melanoma and with NCI/ADR-RES ovarian was over 100 µM in each case. For the same compound, the TGI in the experiment with HCT-15 colon and in the experiment on NCI-H522 lung was over 100 µM each time.
As to `Cc1cccc(-c2cc(=O)c3cc(C)cnc3[nH]2)c1`, the TGI in the experiment with SR leukemia was 1.7 µM; with U251 CNS it was over 100 µM; in the experiment on K-562 leukemia, over 33.3 µM; with HCC-2998 colon, 6.82 µM; in the experiment with KM12 colon it was 16.4 µM; with M14 melanoma it was over 100 µM. Also, the TGI in the experiment on NCI/ADR-RES ovarian was 0.394 µM; in the experiment on HCT-15 colon it was over 26.8 µM; with NCI-H522 lung, 0.259 µM.
As to `O=S1(=O)OCCOS(=O)(=O)C1S(=O)(=O)c1cccc2ccccc12`, the TGI with SR leukemia, in the experiment on U251 CNS, with K-562 leukemia, in the experiment on HCC-2998 colon, in the experiment with KM12 colon and in the experiment on M14 melanoma was over 100 µM in each case. The TGI in the experiment with NCI/ADR-RES ovarian and in the experiment on HCT-15 colon was over 100 µM in each case.
Regarding `COc1cccc2c1C(=O)c1c(O)c3c(c(O)c1C2=O)C[C@@](O)(C(=O)CO)CC3OC1CC(NCCCCC(OC(C)=O)OC(C)=O)C(O)C(C)O1` (some centres undefined), the TGI with SR leukemia is 0.0027 µM; in the experiment on K-562 leukemia, 0.00466 µM; with HCC-2998 colon, 0.00495 µM and 0.00577 µM; in the experiment on KM12 colon, 0.00774 µM and 0.022 µM; in the experiment on M14 melanoma it was 0.00458 µM and 0.00549 µM; in the experiment on HCT-15 colon, over 1 µM. Further, in the experiment with NCI-H522 lung, the TGI is 0.00344 µM and 0.00513 µM. In addition, the GI50 is 0.00266 µM in the experiment on U251 CNS, 0.000522 µM with K-562 leukemia, 0.0011 µM with M14 melanoma and 0.00125 µM in the experiment with NCI-H522 lung.
For the compound `Cc1cc(S(=O)(=O)Nc2n[nH]c(N)n2)c(S)cc1Cl`, the TGI in the experiment with U251 CNS, in the experiment with K-562 leukemia, in the experiment on HCC-2998 colon, in the experiment with KM12 colon, in the experiment on HS 578T breast and in the experiment with M14 melanoma was over 10 µM throughout. For the same compound, the TGI in the experiment with NCI/ADR-RES ovarian, in the experiment on HCT-15 colon and in the experiment with NCI-H522 lung was over 10 µM in each case.
For the compound `O=C1/C(=C/Cc2ccco2)N=C(c2ccccc2)N1c1nc2c(Cl)cc(Cl)cc2s1`, the TGI in the experiment with SR leukemia was 38.7 µM; in the experiment with U251 CNS, 83.5 µM; in the experiment on K-562 leukemia, over 100 µM; in the experiment on HCC-2998 colon it was over 100 µM; in the experiment on KM12 colon, over 100 µM; in the experiment with HS 578T breast it was 57.4 µM. Moreover, the TGI in the experiment with M14 melanoma was over 100 µM; in the experiment with NCI/ADR-RES ovarian it was 84.5 µM; in the experiment on HCT-15 colon, over 100 µM.
Take `c1ccc(C2C3=C(CCCC3)Nc3nnnn32)cc1` (centres undefined): the TGI in the experiment with SR leukemia, with U251 CNS, with K-562 leukemia, in the experiment on KM12 colon, with HS 578T breast and in the experiment with M14 melanoma was over 100 µM each time. Moreover, the TGI in the experiment with NCI/ADR-RES ovarian and in the experiment on HCT-15 colon was over 100 µM in each case.
With `c1ccc2c(c1)[C@@H]1O[C@@H]1[C@@]13O[C@@]21[C@H]1O[C@H]1c1ccccc13`, the TGI with U251 CNS was found to be 28.2 µM; in the experiment on K-562 leukemia, 41.7 µM; in the experiment on HCC-2998 colon it was 35.1 µM; with KM12 colon it was 29.2 µM; in the experiment on HS 578T breast, 28.3 µM; in the experiment on M14 melanoma, 33.6 µM. The values for the TGI in the experiment on NCI/ADR-RES ovarian, in the experiment on HCT-15 colon and with NCI-H522 lung were 39.6 µM, 48.8 µM and 25.4 µM, respectively.

These data come from PubChem BioAssay (NCI).
